In patent US4376783A, “Acylated guanidines and medicaments containing them” (Compagnie Francaise de Sucerie, priority 1980, dated 1983):
“Also recorded” adds a separate entry of the source.

What was measured:
[1] = system: isoproterenol-induced cardio-acceleration and hypotension; settings: statement on the comparison drug; cited from earlier work
[2] = Pharmacological tests: cardiac stimulant effect; type: in vivo; settings: at relatively high doses (of the order of 50 mg)
Excerpt: Pharmacological tests have shown also that:

[3] = system: isoproterenol-induced cardio-acceleration and hypotension; assay: Beta-blocking and sympathomimetic activity against isoproterenol-induced cardio-acceleration and hypotension in anaesthetised dogs; type: in vivo, dog; settings: for sympathomimetic activity / beta-blocking effect: product perfused i.v. at 25 mcg/kg/min, compared with Pindolol; for sympathomimetic activity: seen on cessation of isoprenaline; for beta-blocking effect: isoproterenol perfusion 0.2 mcg/kg/min; for beta-blocking properties relative to those of Pindolol: % of the beta-blocking properties of Pindolol, 25 mcg/kg/min i.v.
Procedure: These tests have been carried out on dogs (of both sexes) of weight comprised between 10 and 25 kg. These dogs were anesthetised by an injection of Pentobarbital (0.1 ml/kg of a 6% solution) and Chloralose (80 mg/kg). The blood pressure was recorded by means of a catheter inserted into the tibial artery and connected to a pressure cell, this pressure being recorded on a Beckman dynograph at the same time as an electrocardiogram; the latter enables the heart rhythm and the heart rate to be checked, integrated by a cardiotachometer.
The blood pressure and the electrocardiogram were first followed for five minutes. Then an isoproterenol solution was perfused into a cephalic vein, at the rate of 0.2 mcg/kg/min, namely 1 ml/min. After fiveperfusing for five minutes, the heart reached a tachycardiac level. At this moment, another perfusion was connected (into the cephalic vein of the other paw) of a Pindolol solution or of the product under study. The compounds of the invention was solubilized in 4 ml of DMF. The volume necessary for the perfusion was obtained by completing it with a 25% DMF solution in distilled water. All the products were injected at the rate of 25 mcg/kg/min. The
The extent to which the products were capable of antagonising the cardio-acceleration on the one hand and the hypotension on the other hand was examined.
After 35 minutes of perfusion, the isoprenaline injection was stopped. The Pindolol perfusion or that of the compound under study was interrupted after 40 minutes.

beta 1 (isolated atria) = assay: Tests on isolated atria (cardiac level)
isolated bronchi = assay: Tests on isolated bronchi (bronchial level)
[4] = Acute toxicity by the oral route in the rat; type: in vivo; settings: in vivo, po, LD 50
Procedure: (§1) As for its toxicity, for the determination of which experiments were carried out on two animal species, namely the rat of the OFA strain and the mouse of the OF1 strain, by two routes of administration namely the oral route and the intravenous route, the results obtained were as follows:
(§2) ACUTE TOXICITY OF THE S.C.S. 149 PRODUCT ADMINISTERED BY THE ORAL ROUTE IN THE RAT
(§3) Death occured within 48 hours after the treatment.
(§4) The product was solubilized, for oral administration, in 2% CMC in water; the volume administered was 25 ml/kg in the mouse and 5 ml/kg in the rat for the dose of 1 g/kg, 10 ml/kg for 2 g/kg and 20 ml/kg for 3.5 and 5 g/kg.
(§5) The product was administered by oesophagal intubation.
(§6) The product was injected at the level of the caudal vein. Before administration of the product, the animals were kept fasting for 16 to 17 hours.

rat [5] = assay: Acute toxicity by the oral route in the rat; type: in vivo
Procedure: as §1, §2, §3, §4, §5, §6

[6] = Acute toxicity by the oral route in the mouse; type: in vivo; settings: in vivo, po, LD 50
Procedure: as §1
(§7) ACUTE TOXICITY OF THE PRODUCT S.C.S. 149 A ADMINISTERED BY THE ORAL ROUTE IN THE MOUSE
(§8) Death took place within 48 hours after treatment
as §4, §5, §6

mouse = assay: Acute toxicity by the oral route in the mouse; type: in vivo
Procedure: as §1, §7, §8, §4, §5, §6

[7] = Acute toxicity by the intravenous route in the mouse; settings: in vivo; for LD50 at 48 h: 48 hours after treatment; for LD50 at 336 h: 14 days after treatment
Procedure: as §1
ACUTE TOXICITY OF THE PRODUCT S.C.S. 149 ADMINISTERED BY THE INTRAVENOUS ROUTE IN THE MOUSE
ACUTE TOXICITY OF THE S.C.S. 149 PRODUCT ADMINISTERED BY THE INTRAVENOUS ROUTE IN THE MOUSE
LD 50 14 days after treatment.
(§9) For the intravenous route, the product was solubilized in:
sterile water in the mouse
(§10) The volume administered was:
as §6

[8] = Acute toxicity by the intravenous route in the rat; type: in vivo; settings: in vivo, iv, LD 50
Procedure: as §1
(§11) ACUTE TOXICITY OF THE PRODUCT S.C.S. 149 ADMINISTERED BY THE INTRAVENOUS ROUTE IN THE RAT
(§12) Death took place within 48 hours after administration of the product.
as §9
(§13) PEG 400+sterile water (1/3+2/3) in the rat.
as §10, §6

rat [9] = assay: Acute toxicity by the intravenous route in the rat; type: in vivo
Procedure: as §1, §11, §12, §9, §13, §10, §6

rats = assay: Six-month toxicological test in rats; type: in vivo; settings: rats of both sexes, daily for six months
Procedure: (§14) Also, toxicological tests have been carried out on 32 dogs (of both sexes) and 160 rats (of both sexes) for six months and have shown that S.C.S. 149 may be tolerated by the rats at a maximum daily dose of 500 mg/kg and by the dogs at a maximum daily dose of 100 mg/kg.

dogs = assay: Six-month toxicological test in dogs; type: in vivo; settings: dogs of both sexes, daily for six months
Procedure: as §14

For `CC(C)NCC(O)COc1cccc2[nH]ccc12` (stereo not drawn) [Pindolol], the “intrinsic sympathomimetic action among beta-blocking agents currently used in therapeutics” value [1] is listed as “intrinsic sympathomimetic action is greatest”.

For `CCCCNC(=O)N(CC(O)COc1cccc2ccccc12)C(C)C` (stereo not drawn) [SCS 128], the cardiac stimulant effect [2] was “cardiac stimulant effects; also recorded: cardiac stimulants”.

In the case of `CC(C)N(CC(O)COc1cccc2ccccc12)C(N)=O` (stereo not drawn) [SCS 131], the cardiac stimulant effect [2] is reported as “cardiac stimulant effects; also recorded: cardiac stimulants”.

In the case of `CCOC(=O)NC(=N)N(CC(O)COc1ccccc1Cl)C1CCCCC1` (stereo not drawn) [SCS 146], the sympathomimetic activity [3] is reported as “sympathomimetic action; also recorded: considerable sympathomimetic activity”.

With `CCOC(=O)NC(=N)N(CC(O)COc1ccc(Cl)cc1)C1CCCCC1` (stereo not drawn) [SCS 147] the sympathomimetic activity [3] was “sympathomimetic activity still greater than that of the preceding compound” and the sympathomimetic activity ([3]; listed as 147) was “sympathomimetic action”.

In the case of `CCOC(=O)NC(=N)N(CC(O)COc1ccc(Cl)cc1)C(C)C` (stereo not drawn) [SCS 148], the beta-blocking effect [3] is reported as “certain betablocking action masked by intrinsic sympathomimetic properties”, the sympathomimetic activity [3] is reported as “intrinsic sympathomimetic properties” and the sympathomimetic activity ([3]; listed as 148) is reported as “sympathomimetic action”.

With `Cc1ccccc1OCC(O)CN(C(=N)NC(=O)c1ccccc1)C(C)C` (stereo not drawn) [SCS 149] the “beta-blocking properties relative to those of Pindolol” value [3] was “about 60%”, the beta-blocking effect [3] was “undisputable beta-blocking properties” and the beta-blocking effect ([3]; listed as 149) was “beta-blocking effects”. The sympathomimetic activity [3] was “intrinsic sympathomimetic effects”, the “beta 1 blocking activity, type at the cardiac level” value (beta 1 (isolated atria)) was “beta 1 blocking activity of competitive type” and the “blocking activity, type at the bronchial level” value (isolated bronchi) was “of the competitive type”. For the same compound, the LD50 at 48 h [4] was 3330 mg/kg, the “LD 50” value (rat [5]; in vivo, po, 48 h) was 2932.6 mg/kg and the “time of death after treatment” value (rat [5]; oral) was ≤ 48 h. For the same compound, the LD50 at 48 h [6] was 560 mg/kg, the “LD 50” value (mouse; in vivo, po, 48 h) was 604.81 mg/kg and the “time of death after treatment” value (mouse; oral) was ≤ 48 h. The LD50 at 48 h ([7]; female mice) was 38.8 mg/kg, the LD50 at 336 h ([7]; female mice) was 38.1 mg/kg and the LD50 at 48 h ([7]; male mice) was 37.2 mg/kg. The LD50 at 336 h ([7]; male mice) was 37.2 mg/kg, the LD50 at 48 h [8] was 35.3 mg/kg and the “LD 50” value (rat [9]; in vivo, iv, 48 h) was 40.37 mg/kg. For the same compound, the “time of death after administration” value (rat [9]; intravenous) was ≤ 48 h, the “maximum tolerated daily dose” value (rats) was 500 mg/kg and the “maximum tolerated daily dose” value (dogs) was 100 mg/kg.

With `CCOC(=O)NC(=N)N(CC(O)COc1ccccc1C)C(C)C` (stereo not drawn) [SCS 150] the “beta-blocking properties relative to those of Pindolol” value [3] was “about 70%”, the beta-blocking effect [3] was “adrenergic beta-blocking properties” and the beta-blocking effect ([3]; listed as 150) was “beta-blocking effects”. For the same compound, the sympathomimetic activity [3] was “intrinsic sympathomimetic effects”.

With `CCOC(=O)NC(=N)N(CC(O)COc1ccccc1C)C1CCCCC1` (stereo not drawn) [SCS 151] the sympathomimetic activity [3] was “sympathomimetic characteristics” and the sympathomimetic activity ([3]; listed as 151) was “sympathomimetic action”.
